Assays:
[1] = system: soybean; test: Test C postemergence; type: in vivo, Glycine max; conditions: postemergence; for Plant response rating, Soybean: 250 g ai/ha, scale 0 to 100 (0 no effect, 100 complete control); for Soybean plant response rating: 125 g ai/ha, scale 0 to 100, 0 no effect, 100 complete control
Procedure, shortened: (§1)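 Seeds sown in loam–sand blend and treated preemergence with test chemicals in non-phytotoxic solvent with surfactant; postemergence plants in peat-based medium, treated at 2–18 cm (1- to 4-leaf stage). Greenhouse 13 to 15 days, then visual rating versus controls, 0 (no effect) to 100 (complete control).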

[2] = system: pigweed; test: Test C preemergence; type: in vivo, Amaranthus retroflexus; conditions: preemergence; for Plant response rating, Pigweed: 125 g ai/ha, scale 0 to 100, 0 = no effect, 100 = complete control
Procedure, shortened: as §1

[3] = system: johnsongrass; test: Test C preemergence; type: in vivo, Sorghum halepense; conditions: preemergence; for Plant response rating, Johnsongrass: 125 g ai/ha, scale 0 to 100, 0 = no effect, 100 = complete control
Procedure, shortened: as §1

[4] = system: wheat; test: Test C postemergence; type: in vivo, Triticum aestivum; conditions: postemergence; for Plant response rating, Wheat: 250 g ai/ha, scale 0 to 100 (0 no effect, 100 complete control); for Wheat plant response rating: scale 0 to 100
Procedure, shortened: as §1

[5] = system: blackgrass; test: Test C preemergence; type: in vivo, Alopecurus myosuroides; conditions: preemergence; for Plant response rating, Blackgrass: 125 g ai/ha, scale 0 to 100, 0 = no effect, 100 = complete control
Procedure, shortened: as §1

[6] = system: foxtail, giant; test: Test C postemergence; type: in vivo, Setaria faberii; conditions: for Plant response rating (scale of 0 to 100 where 0 is no effect and 100 is complete control), Foxtail, Giant: Postemergence, 31 g ai/ha, visually evaluated after 13 to 15 days; for Foxtail, Giant plant response rating / Plant response rating, Foxtail, Giant: postemergence; for Foxtail, Giant plant response rating: 62 g ai/ha, scale 0 to 100
Procedure, shortened: as §1

[7] = system: pigweed; test: Test A preemergence; type: in vivo, Amaranthus retroflexus; conditions: preemergence; for Pigweed plant response rating (0 to 100 scale): 125 g ai/ha, visual injury approx. 10 days after treatment; for Pigweed plant response rating: 500 g ai/ha, visual injury after approx. 10 days, 0 to 100 scale (0 no effect, 100 complete control)
Procedure, shortened: (§2)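 After sowing in a sand–loam mix, pots received compound preemergence by directed soil spray, or postemergence once plants reached the one- to two-leaf stage (2–10 cm). Formulation contained surfactant in a non-phytotoxic solvent. Injury was scored visually after ~10 greenhouse days, 0–100 scale.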

[8] = system: foxtail, giant; test: Test A preemergence; type: in vivo, Setaria faberii; conditions: preemergence; for Foxtail, Giant plant response rating (0 to 100 scale): 125 g ai/ha, visual injury approx. 10 days after treatment; for Foxtail, Giant plant response rating: 500 g ai/ha, visual injury after approx. 10 days, 0 to 100 scale (0 no effect, 100 complete control)
Procedure, shortened: as §2

[9] = system: galium; test: Test C preemergence; type: in vivo, Galium aparine; conditions: preemergence; for Plant response rating, Galium: 125 g ai/ha, scale 0 to 100, 0 = no effect, 100 = complete control
Procedure, shortened: as §1

[10] = system: crabgrass, large; test: Test A postemergence; type: in vivo, Digitaria sanguinalis
Procedure, shortened: as §2

[11] = system: blackgrass; test: Test C postemergence; type: in vivo, Alopecurus myosuroides; conditions: for Plant response rating (scale of 0 to 100 where 0 is no effect and 100 is complete control), Blackgrass: Postemergence, 31 g ai/ha, visually evaluated after 13 to 15 days; for Blackgrass plant response rating / Plant response rating, Blackgrass: postemergence; for Blackgrass plant response rating: 62 g ai/ha, scale 0 to 100
Procedure, shortened: as §1

[12] = system: pigweed; test: Test C postemergence; type: in vivo, Amaranthus retroflexus; conditions: postemergence; for Pigweed plant response rating: 62 g ai/ha, scale 0 to 100
Procedure, shortened: as §1

[13] = system: ragweed; test: Test C postemergence; type: in vivo, Ambrosia elation; conditions: postemergence
Procedure, shortened: as §1

[14] = system: barnyardgrass; test: Test C postemergence; type: in vivo, Echinochloa crus-galli; conditions: for Plant response rating (scale of 0 to 100 where 0 is no effect and 100 is complete control), Barnyardgrass: Postemergence, 31 g ai/ha, visually evaluated after 13 to 15 days; for Barnyardgrass plant response rating / Plant response rating, Barnyardgrass: postemergence; for Barnyardgrass plant response rating: 62 g ai/ha, scale 0 to 100
Procedure, shortened: as §1

[15] = system: corn; test: Test A postemergence; type: in vivo, Zea mays
Procedure, shortened: as §2

[16] = 31 g ai/ha, visual rating, scale 0 to 100 (0 no effect, 100 complete control), 13 to 15 days
[17] = 62 g ai/ha, scale 0 to 100 (0 no effect, 100 complete control), 13 to 15 days
[18] = 250 g ai/ha, scale 0 to 100, 0 is no effect, 100 is complete control
[19] = 250 g ai/ha, scale 0 to 100 (0 no effect, 100 complete control)
[20] = 125 g ai/ha, scale 0 to 100, 0 no effect, 100 complete control
[21] = Postemergence, 500 g ai/ha, 0 to 100 scale (0 no effect, 100 complete control)
[22] = postemergence, 125 g ai/ha, about 10 days, visual rating on 0 to 100 scale (0 no effect, 100 complete control)

SMILES: CCCc1cc(C(=O)NC(C)C)nn1Cc1cc(C(F)(F)F)nn1C [Compound 201]
- Plant response rating, Soybean [1]: 98
- Soybean plant response rating [1]: 95
- Pigweed plant response rating [2, 16]: 100
- Pigweed plant response rating [2, 17]: 100
- Plant response rating, Pigweed ([2]; 13 to 15 days): 98
- Pigweed plant response rating [2, 18]: 98
- Johnsongrass plant response rating [3, 16]: 85
- Johnsongrass plant response rating [3, 17]: 85
- Plant response rating, Johnsongrass ([3]; 13 to 15 days): 100
- Johnsongrass plant response rating [3, 18]: 100
- Plant response rating, Wheat [4]: 10
- Wheat plant response rating [4]: 5
- Blackgrass plant response rating [5, 16]: 85
- Blackgrass plant response rating [5, 17]: 90
- Plant response rating, Blackgrass ([5]; 13 to 15 days): 90
- Blackgrass plant response rating [5, 18]: 90
- Plant response rating (scale of 0 to 100 where 0 is no effect and 100 is complete control), Foxtail, Giant [6]: 10
- Foxtail, Giant plant response rating [6]: 10
- Plant response rating, Foxtail, Giant [6, 19]: 85
- Plant response rating, Foxtail, Giant [6, 20]: 30
- Pigweed plant response rating (0 to 100 scale) [7]: 100
- Pigweed plant response rating [7]: 100
- Foxtail, Giant plant response rating (0 to 100 scale) [8]: 100
- Foxtail, Giant plant response rating [8]: 100
- Galium plant response rating [9, 16]: 95
- Galium plant response rating [9, 17]: 95
- Plant response rating, Galium ([9]; 13 to 15 days): 98
- Galium plant response rating [9, 18]: 100
- Crabgrass, Large plant response rating [10, 21]: 100
- Crabgrass, Large plant response rating [10, 22]: 90
- Plant response rating (scale of 0 to 100 where 0 is no effect and 100 is complete control), Blackgrass [11]: 20
- Blackgrass plant response rating [11]: 5
- Plant response rating, Blackgrass [11, 19]: 60
- Plant response rating, Blackgrass [11, 20]: 15
- Pigweed plant response rating [12]: 65
- Plant response rating, Pigweed [12, 19]: 90
- Plant response rating, Pigweed [12, 20]: 80
- Plant response rating, Ragweed [13, 19]: 85
- Plant response rating, Ragweed [13, 20]: 60
- Plant response rating (scale of 0 to 100 where 0 is no effect and 100 is complete control), Barnyardgrass [14]: 5
- Barnyardgrass plant response rating [14]: 10
- Plant response rating, Barnyardgrass [14, 19]: 60
- Plant response rating, Barnyardgrass [14, 20]: 35
- Corn plant response rating [15, 21]: 100
- Corn plant response rating [15, 22]: 90

SMILES: CCCc1cc(C(=O)NC2CC2)nn1Cc1cc(C(F)(F)F)nn1C [Compound 202]
- Plant response rating, Soybean [1]: 98
- Soybean plant response rating [1]: 98
- Pigweed plant response rating [2, 16]: 100
- Pigweed plant response rating [2, 17]: 100
- Plant response rating, Pigweed ([2]; 13 to 15 days): 100
- Pigweed plant response rating [2, 18]: 100
- Johnsongrass plant response rating [3, 16]: 50
- Johnsongrass plant response rating [3, 17]: 85
- Plant response rating, Johnsongrass ([3]; 13 to 15 days): 100
- Johnsongrass plant response rating [3, 18]: 100
- Plant response rating, Wheat [4]: 5
- Wheat plant response rating [4]: 5
- Blackgrass plant response rating [5, 16]: 10
- Blackgrass plant response rating [5, 17]: 85
- Plant response rating, Blackgrass ([5]; 13 to 15 days): 90
- Blackgrass plant response rating [5, 18]: 90
- Plant response rating (scale of 0 to 100 where 0 is no effect and 100 is complete control), Foxtail, Giant [6]: 5
- Foxtail, Giant plant response rating [6]: 10
- Plant response rating, Foxtail, Giant [6, 19]: 35
- Plant response rating, Foxtail, Giant [6, 20]: 10
- Pigweed plant response rating (0 to 100 scale) [7]: 100
- Pigweed plant response rating [7]: 100
- Foxtail, Giant plant response rating (0 to 100 scale) [8]: 100
- Foxtail, Giant plant response rating [8]: 100
- Galium plant response rating [9, 16]: 98
- Galium plant response rating [9, 17]: 100
- Plant response rating, Galium ([9]; 13 to 15 days): 100
- Galium plant response rating [9, 18]: 100
- Crabgrass, Large plant response rating [10, 21]: 100
- Crabgrass, Large plant response rating [10, 22]: 90
- Plant response rating (scale of 0 to 100 where 0 is no effect and 100 is complete control), Blackgrass [11]: 5
- Blackgrass plant response rating [11]: 10
- Plant response rating, Blackgrass [11, 19]: 30
- Plant response rating, Blackgrass [11, 20]: 20
- Pigweed plant response rating [12]: 80
- Plant response rating, Pigweed [12, 19]: 95
- Plant response rating, Pigweed [12, 20]: 90
- Plant response rating, Ragweed [13, 19]: 80
- Plant response rating, Ragweed [13, 20]: 65
- Plant response rating (scale of 0 to 100 where 0 is no effect and 100 is complete control), Barnyardgrass [14]: 10
- Barnyardgrass plant response rating [14]: 10
- Plant response rating, Barnyardgrass [14, 19]: 25
- Plant response rating, Barnyardgrass [14, 20]: 15
- Corn plant response rating [15, 21]: 90
- Corn plant response rating [15, 22]: 80
